Where “and” joins values, the source holds several entries; their conditions need not be identical. Equal entries are not always repeated.
System: subjects with chronic idiopathic thrombocytopenic purpura (ITP)
Test: Phase 2 double-blind placebo-controlled dose-ranging 28-day study of E5501 tablets: platelet count response (responder rate)
Type: in vivo, human
Details: for Responder, Yes / Responder, No: Day 28; for Subjects Who Maintained Responder Status, No / Subjects Who Maintained Responder Status, Yes: completer population; for Subjects Who Maintained Responder Status, Yes: Day 7 response maintained to Day 28; for subjects with increased platelet counts that met the criteria for positive response / response: day 28; for subjects with increased platelet counts that met the criteria for positive response: FAS
Method: This was a phase 2, multi-center, double-blind, randomized, placebo-controlled, dose-ranging, parallel group study of E5501 tablets, used in the treatment of subjects with chronic idiopathic thrombocytopenic purpura (ITP) refractory to or relapsed after at least one prior ITP therapy. Subjects who met all entry criteria were randomly assigned in a 3:3:3:3:1 ratio to one of the following five treatment groups dosed daily for 28 days: 1) E5501 2.5 mg; 2) E5501 5 mg; 3) E5501 10 mg; 4) E5501 20 mg; or 5) placebo (PBO). Each E5501 dosing group consisted of 15 subjects while the PBO group consisted of 5 subjects. All study subjects were evaluated weekly (days 7, 14, 21 and 28) for safety and efficacy while receiving study treatment, with a final assessment for safety and effectiveness performed 4 weeks after the last study dose (day 56) unless the subject entered the follow-on study. Platelet counts were also measured on day 3 and day 5.
The primary objective of this study was to assess platelet count response to E5501 on day 28. The response rate was defined as the proportion of subjects who were not on steroids with a screening visit B platelet count <30,000/mm^3 and who achieved a platelet count ≧50,000/mm^3, together with the proportion of subjects receiving steroids with a screening visit B platelet count ≧30,000/mm^3 but <50,000/mm^3 who achieved a platelet count ≧20,000/mm^3 above their screening visit B platelet count. Secondary objectives of the study included the evaluation of other markers of effectiveness, including changes in peripheral blood platelet count, the proportion of subjects who achieved a platelet count ≧50,000/mm^3 and ≧100,000/mm^3, and the proportion of subjects who achieved a doubling of their platelet count at screening visit B and the assessment of the safety and tolerability of E5501.
Primary efficacy endpoint. The primary endpoint in this study was E5501 responder rate on day 28. A responder is defined as a subject with screening visit B platelet count <30,000/mm^3 who achieves a platelet count ≧50,000/mm^3 or a subject receiving steroids with a screening visit B platelet count ≧30,000/mm^3 but <50,000/mm^3 who achieves a platelet count ≧20,000/mm^3 above their screening visit B platelet count.
The secondary endpoints included changes from screening visit B in peripheral blood platelet counts over time; the proportion of subjects who achieved a platelet count of ≧50,000/mm^3 or ≧100,000/mm^3 on day 28 and the proportion of subjects whose platelet count doubled compared to their platelet count at Screening Visit B.
The populations of interest were defined as follows: • The randomized population included all subjects who were randomized into the study. • The safety population included all randomized subjects who receive at least one dose of study drug and have at least one safety assessment. • The pharmacokinetic (PK) population included all subjects who provided blood sample for analysis of E5501. A subject was included in this population if the subject had at least one blood draw for PK assessment. • The full analysis set (FAS) included all subjects who provided adequate data to derive at least one efficacy assessment. […] The day 28 visit window was defined to be from day 25, to last dose day+1, inclusively; • Other major protocol violations that impacted the platelet endpoint evaluation. Results from Planned Analyses
Primary Efficacy Endpoint. The analysis of efficacy was performed both on the FAS population and the PP population at day 28 visit with LOCF and observed case (OC) approaches. The primary analysis population was the FAS. Fisher's exact test was used to examine the difference of response rates among each treatment pair. All p-values are nominal without adjustment for multiplicity.
Secondary Efficacy Endpoint. Analyses for secondary efficacy endpoints were performed by treatment group and by analysis visit using both LOCF and OC methods. […]

[1] = No Previous History of Splenectomy, 20 mg
[2] = No Previous History of Splenectomy, Total E5501
[3] = Number of Lines of Prior Therapy <3, 2.5 mg
[4] = Number of Lines of Prior Therapy <3, 5 mg
[5] = Number of Lines of Prior Therapy <3, 10 mg
[6] = Number of Lines of Prior Therapy <3, 20 mg
[7] = Number of Lines of Prior Therapy <3, Total E5501
[8] = Number of Lines of Prior Therapy ≧3, 2.5 mg
[9] = Number of Lines of Prior Therapy ≧3, 5 mg
[10] = Number of Lines of Prior Therapy ≧3, 10 mg
[11] = Number of Lines of Prior Therapy ≧3, 20 mg
[12] = Number of Lines of Prior Therapy ≧3, Total E5501
[13] = Per Protocol Population, 2.5 mg
[14] = Per Protocol Population, Total E5501
[15] = Previous History of Splenectomy, 2.5 mg
[16] = Previous History of Splenectomy, 5 mg
[17] = Previous History of Splenectomy, 10 mg
[18] = Previous History of Splenectomy, 20 mg
[19] = Previous History of Splenectomy, Total E5501

O=C(Nc1nc(-c2cc(Cl)cs2)c(N2CCN(C3CCCCC3)CC2)s1)c1cnc(N2CCC(C(=O)O)CC2)c(Cl)c1 [E5501, 1-(3-chloro-5-{[4-(4-chlorothiophen-2-yl)-5-(4-cyclohexylpiperazin-1-yl)thiazol-2-yl]carbamoyl}pyridine-2-yl)piperidine-4-carboxylic acid]
Responder, Yes (No Previous History of Splenectomy, 10 mg): 6 (54.5) n (%)
Responder, No [1]: 1 (11.1) n (%)
Responder, Yes [1]: 8 (88.9) n (%)
Responder, No [2]: 20 (48.8) n (%)
Responder, Yes [2]: 21 (51.2) n (%)
Responder, No [3]: 3 (100.0) n (%)
Responder, Yes [3]: 0 n (%)
Responder, No [4]: 4 (44.4) n (%)
Responder, Yes [4]: 5 (55.6) n (%)
Responder, No [5]: 1 (25.0) n (%)
Responder, Yes [5]: 3 (75.0) n (%)
Responder, No [6]: 1 (14.3) n (%)
Responder, Yes [6]: 6 (85.7) n (%)
Responder, No [7]: 9 (39.1) n (%)
Responder, Yes [7]: 14 (60.9) n (%)
Responder, No [8]: 10 (83.3) n (%)
Responder, Yes [8]: 2 (16.7) n (%)
Responder, No [9]: 3 (50.0) n (%)
Responder, Yes [9]: 3 (50.0) n (%)
Responder, No [10]: 6 (60.0) n (%)
Responder, Yes [10]: 4 (40.0) n (%)
Responder, No [11]: 2 (25.0) n (%)
Responder, Yes [11]: 6 (75.0) n (%)
Responder, No [12]: 21 (58.3) n (%)
Responder, Yes [12]: 15 (41.7) n (%)
Responder, No (Other Site Pooled, 2.5 mg): 8 (88.9) n (%)
Responder, Yes (Other Site Pooled, 2.5 mg): 1 (11.1) n (%)
Responder, No (Other Site Pooled, 5 mg): 6 (60.0)2 n (%)
Responder, Yes (Other Site Pooled, 5 mg): 4 (40.0) n (%)
Responder, No (Other Site Pooled, 10 mg): 4 (57.1) n (%)
Responder, Yes (Other Site Pooled, 10 mg): 3 (42.9) n (%)
Responder, No (Other Site Pooled, 20 mg): 1 (16.7) n (%)
Responder, Yes (Other Site Pooled, 20 mg): 5 (83.3) n (%)
Responder, No (Other Site Pooled, Total E5501): 19 (59.4) n (%)
Responder, Yes (Other Site Pooled, Total E5501): 13 (40.6) n (%)
Responder, No [13]: 11 (84.6) n (%)
Responder, Yes [13]: 2 (15.4) n (%)
Responder, No (Per Protocol Population, 5 mg): 7 (53.8) n (%)
Responder, Yes (Per Protocol Population, 5 mg): 6 (46.2) n (%)
Responder, No (Per Protocol Population, 10 mg): 5 (41.7) n (%)
Responder, Yes (Per Protocol Population, 10 mg): 7 (58.3) n (%)
Responder, No (Per Protocol Population, 20 mg): 3 (25.0) n (%)
Responder, Yes (Per Protocol Population, 20 mg): 9 (75.0) n (%)
Responder, No [14]: 26 (52.0) n (%)
Responder, Yes [14]: 24 (48.0) n (%)
Responder, No [15]: 4 (80.0) n (%)
Responder, Yes [15]: 1 (20.0) n (%)
Responder, No [16]: 2 (50.0) n (%)
Responder, Yes [16]: 2 (50.0) n (%)
Responder, No [17]: 2 (66.7) n (%)
Responder, Yes [17]: 1 (33.3) n (%)
Responder, No [18]: 2 (33.3) n (%)
Responder, Yes [18]: 4 (66.7) n (%)
Responder, No [19]: 10 (55.6) n (%)
Responder, Yes [19]: 8 (44.4) n (%)
Responder, No (Site 132, 2.5 mg): 5 (83.3) n (%)
Responder, Yes (Site 132, 2.5 mg): 1 (16.7) n (%)
Responder, No (Site 132, 5 mg): 1 (20.0) n (%)
Responder, Yes (Site 132, 5 mg): 4 (80.0) n (%)
Responder, No (Site 132, 10 mg): 3 (42.9) n (%)
Responder, Yes (Site 132, 10 mg): 4 (57.1) n (%)
Responder, No (Site 132, 20 mg): 2 (22.2) n (%)
Responder, Yes (Site 132, 20 mg): 7 (77.8) n (%)
Responder, No (Site 132, Total E5501): 11 (40.7) n (%)
Responder, Yes (Site 132, Total E5501): 16 (59.3) n (%)
responder rate (by Day 7, 2.5 mg): 6.7%
responder rate (by Day 7, 5 mg): 66.7%
responder rate (by Day 7, 10 mg): 64%
responder rate (by Day 7, 20 mg): 93.3% and 93%
subjects who achieved an increase in platelet count by ≧50,000/mm^3 (by Day 7, 20 mg): Approximately 90%
Subjects Who Maintained Responder Status, No (2.5 mg): 13 (100.0) n (%)
Subjects Who Maintained Responder Status, No (5 mg): 10 (71.4) n (%)
Subjects Who Maintained Responder Status, No (10 mg): 7 (58.3) n (%)
Subjects Who Maintained Responder Status, No (20 mg): 3 (23.1) n (%)
Subjects Who Maintained Responder Status, Yes (2.5 mg): 0 n (%)
Subjects Who Maintained Responder Status, Yes (5 mg): 4 (28.6) n (%)
Subjects Who Maintained Responder Status, Yes (10 mg): 5 (41.7) n (%)
Subjects Who Maintained Responder Status, Yes (20 mg): 10 (76.9) n (%)
Subjects Who Maintained Responder Status, Yes (Total E5501): 19 (36.5) n (%)
Subjects Who Maintained Responder Status, No (Total E5501): 33 (63.5) n (%)
subjects with increased platelet counts that met the criteria for positive response (2.5 mg): 13.3%
subjects with increased platelet counts that met the criteria for positive response (5 mg): 53.3%
subjects with increased platelet counts that met the criteria for positive response (10 mg): 50%
subjects with increased platelet counts that met the criteria for positive response (20 mg): 80%
response (other sites pooled, 5 mg): 40%
response (site 132, 5 mg): 80%
subjects who responded by day 7 (dose of ≧5 mg): 57.6%
overall response rate (highest dose of E5501 tested): 80-93%
reduction of response rates from day 7 to 28 days (lower E5501 dose groups): about 30%
subjects treated with E5501 who responded by day 3 (of 13 subjects): One
subjects treated with E5501 who responded by day 5 (of 19 subjects): 6 subjects
